According to patent US6399773B1, “Compounds derived from an amine nucleus that are inhibitors of IMPDH enzyme” (Bristol-Myers Squibb Co., priority 1998, dated 2002):

Row | SMILES | melting point
1 | COc1cc(Nc2cccc(-c3ccccc3)c2)ccc1-c1cnco1 [Example 29, N-[3-Methoxy-4-(5-oxazolyl)phenyl][1,1′-biphenyl]-3-amine] | 171 to 173 °C
2 | COc1cc(Nc2nsc(-c3ccccc3)n2)ccc1-c1cnco1 [Example 30, N-[3-Methoxy-4-(5-oxazolyl)phenyl]-5-phenyl-1,2,4-thiadiazol-3-amine] | 260 to 261 °C
3 | COc1cc(Nc2cc(-c3ccccc3)on2)ccc1-c1cnco1 [Example 31, N-[3-Methoxy-4-(5-oxazolyl)phenyl]-5-phenyl-3-isoxazolamine] | 173 to 175 °C

The remaining lines, values ahead:

Row | melting point | SMILES
4 | 271 to 274 °C | COc1cc(Nc2ncc(-c3ccccc3C(=O)O)o2)ccc1-c1cnco1 [Example 80, 2-[2-[[3-Methoxy-4-(5-oxazolyl)phenyl]amino]-5-oxazolyl]benzoic acid]
5 | 179 to 181 °C | COc1cc(Nc2ncc(-c3ccccc3N(C)C(=O)CN3CCOCC3)o2)ccc1-c1cnco1 [Example 79, N-[2-[2-[[3-Methoxy-4-(5-oxazolyl)phenyl]amino]-5-oxazolyl]phenyl]-N-methyl-4-morpholineacetamide]
6 | 212 to 215 °C | COc1cc(Nc2ncc(-c3ccccc3)o2)ccc1-c1cnco1 [Example 34, N-[3-Methoxy-4-(5-oxazolyl)phenyl]-5-phenyl-2-oxazolamine]
